Test results published in patent US10239830B2, “Benzenesulfonamide upregulators of NPC1 for Neimann-Pick disease and other lysosomal storage disorders” (ICAHN SCHOOL OF MEDICINE AT MOUNT SINAI, priority 2015, dated 2019).

What was measured:
[1] = tested on: NPC1 patient cell fibroblasts; assay: Filipin Staining Assay to Detect Free Cholesterol Accumulation in NPC Cells; format: cell-based, human; conditions: filipin fluorescence relative to untreated cells
Method: Filipin Staining Assay to Detect Free Cholesterol Accumulation in NPC Cells. Compounds were evaluated for their effect on the NPC1 cellular phenotype by staining treated NPC1 patient cell fibroblasts with filipin, which recognizes free unesterified cholesterol. Compounds that upregulate the NPC1 promoter were expected to reduce the filipin staining in treated NPC1 fibroblasts compared to untreated NPC1 fibroblasts, indicating clearance of unesterified cholesterol. Conversely, inhibitors of the NPC1 promoter were expected to increase filipin staining in wild-type fibroblasts, thus indicating the emergence of an NPC-like phenotype. Briefly, cells were grown in lipoprotein-deficient medium for 3-4 days, and then the medium was replaced and supplemented with test compound plus 50 μg/mL low-density lipoprotein (LDL). After 24-48 hours, cells were stained with filipin and scored under the 40× magnification filter using the integrated morphometry function in the Metavue program (Molecular Devices). Test compounds that decreased the intensity of filipin fluorescence to less than 50% of untreated cells are considered of particular interest.

Wild type (Wt) cells = assay: VTB-GL-3 assay, wild type cells; format: cell-based, human; conditions: Wt cells treated for 3 days
Rab9 promoter = assay: qHTS of Rab9 Promoter-Luciferase Reporter Gene Assay (firefly, Huh7); format: cell-based, human; conditions: 24 hours
Method: qHTS of Rab9 Promoter-Luciferase Reporter Gene Assay. For the primary screen, a promoter assay was developed by engineering a vector using approximately 1.5 kb of the Rab9 promoter to drive the expression of the firefly luciferase reporter gene. Thus, Rab9 promoter activation results in luciferase expression. This vector was used to generate Huh7 cell lines stably expressing the Rab9-luciferase vector. […] Cells were plated for assays in OPTI-MEM I reduced-serum medium supplemented with 10% FBS at 1,500 cells/well in 5 μL in 1,536-well white opaque plates with 23 nL/well of test compound in DMSO solution. The assay plates were incubated at 37° C. for 24 hours, after which 3 μL/well BriteLite plus luciferase detection reagent mixture (Perkin Elmer) was added. Luminescence signal was measured in a ViewLux plate reader (Perkin Elmer) after a 10 minute incubation at room temperature.

NPC3 cells = assay: Lactosyl Ceramide (BODIPY-LacCer) staining to monitor sphingolipid transport; format: cell-based, human; conditions: for correction of lipid transport block (accumulation of Bodipy LacCer probe to the Golgi): compared to untreated NPC3 cells
Method: Lactosyl Ceramide staining to monitor sphingolipid transport in NPC cells. The effect of each compound on the sphingolipid transport defect seen in NPC1 fibroblasts was assessed in cells treated with compound for 48-72 hours using the fluorescent probe BODIPY-lactosylceramide (LacCer). […] This mislocalization can be corrected and Golgi localization restored by expression of Wt NPC1 protein or Rab9, thus providing a dynamic view of the endocytic transport pathway. Cells were incubated with 5 μM BODIPY-LacCer/BSA for 45 min at 37° C. in culture medium containing 1% FBS, washed, and further incubated for 1 h at 37° C. in medium containing 1% FBS. Fluorescent lipid present at the plasma membrane was removed by back-exchange with 5% fatty acid-free BSA. Cells were fixed with 3% paraformaldehyde for 20 min at RT and then visualized on a Nikon Eclipse microscope fitted with a charge-coupled-device camera. Images were acquired with MetaVue software and then deconvoluted using AutoDeblur software.
Unlike the VTB assay above that detects the static levels of lipid storage, the Bodipy LacCer probe allows for detection of the recovery/correction of lipid transport from the plasma membrane to the Golgi apparatus as described above. This dynamic assay can be used to determine the level of correction various compounds have on the NPC transport block.

NPC1 promoter [2] = assay: qHTS of NPC1 Promoter-Luciferase Reporter Gene Assay (firefly, Huh7); format: cell-based, human; conditions: 24 hours
Method: qHTS of NPC1 Promoter-Luciferase Reporter Gene Assay. For the second primary screen, a promoter assay was developed by engineering a vector using approximately 1.5 kb of the NPC1 promoter to drive the expression of the firefly luciferase reporter gene. Thus, NPC1 promoter activation results in luciferase expression. This vector was used to generate Huh7 cell lines stably expressing the NPC1-luciferase vector. […] Cells were plated for assays in OPTI-MEM I reduced-serum medium supplemented with 10% FBS at 1,500 cells/well in 5 μL in 1,536-well white opaque plates with 23 nL/well of test compound in DMSO solution. The assay plates were incubated at 37° C. for 24 hours, after which 3 μL/well BriteLite plus luciferase detection reagent mixture (Perkin Elmer) was added. Luminescence signal was measured in a ViewLux plate reader (Perkin Elmer) after a 10 minute incubation at room temperature.

Renilla Enzyme = target: T1, Renilla Enzyme (Renilla reniformis, UniProt P27652); assay: Biochemical Renilla Luciferase Counter assay
T1 sequence (P27652 1-311): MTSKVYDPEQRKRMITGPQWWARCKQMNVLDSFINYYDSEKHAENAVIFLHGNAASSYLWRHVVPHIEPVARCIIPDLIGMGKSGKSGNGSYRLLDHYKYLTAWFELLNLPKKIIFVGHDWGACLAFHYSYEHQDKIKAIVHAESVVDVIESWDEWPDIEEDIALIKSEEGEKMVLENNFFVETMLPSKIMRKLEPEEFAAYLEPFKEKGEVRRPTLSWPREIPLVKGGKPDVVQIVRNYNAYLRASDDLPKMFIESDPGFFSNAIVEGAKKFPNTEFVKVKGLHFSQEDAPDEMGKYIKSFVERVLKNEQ
Method: Biochemical Renilla Luciferase Counter assay. An orthogonal assay was run to exclude any compounds that promoted renilla luciferase signal by stabilizing the renilla protein. Briefly, 3 μL of 0.01 mM D-Luciferin and 0.01 mM ATP was dispensed into a 1536 well white, solid bottom plate. Through pinning, 23 nL of compound was added; PTC124 (3-[5-(2-Fluorophenyl)-1,2,4-oxadiazol-3-yl]benzoic acid) served as the control. After a 10 min incubation at room temperature, 1 μL of Luciferase was added, after which the plate was immediately read on the ViewLux for a luminescent read-out.

NPC1 promoter [3] = assay: Confirmation Assay of NPC1 Promoter Activators: Renilla Luciferase (Huh7); format: cell-based, human; conditions: 24 hours
Method: Confirmation Assay of NPC1 Promoter Activators: Renilla Luciferase. The confirmation assay was carried out using an assay in which the NPC1 promoter drives the expression of a different luciferase protein from the one used in the primary screen. The NPC1 promoter was cloned in front of the renilla luciferase reporter gene. NPC1 promoter activation results in renilla luciferase expression. This vector was used to generate Huh7 cell lines stably expressing the NPC1-renilla luciferase vector. These cells were propagated and maintained in medium containing RPMI-1640 supplemented with 10% FBS, 2 mM L-glutamine, and 50 μg/mL penicillin/streptomycin. Cells were plated for assays in OPTI-MEM I reduced-serum medium supplemented with 10% FBS at 1,500 cells/well in 5 μL in 1,536-well white opaque plates and then 23 nL/well of compound in DMSO solution were added through pin transfer. The assay plates were incubated at 37° C. for 24 hours. The Amplite luciferase reporter gene assay kit was purchased from ABD Bioquest and prepared/stored according to manufacturer's recommendations. Luminescence signal was measured in a ViewLux plate reader (Perkin Elmer) after a 10 minute incubation at room temperature.

Compound	% storage at 0.1 μM [1] [%]	% storage at 1 μM [1] [%]	effect on storage of lipid material (VTB staining) in Wt cells (Wild type (Wt) cells)	EC50 (Rab9 promoter) [µM]	Rab9 Eff. (Rab9 promoter) [%]	percent Golgi location (NPC3 cells; 1 μM)	correction of lipid transport block (accumulation of Bodipy LacCer probe to the Golgi) (NPC3 cells)	EC50 (NPC1 promoter [2]) [µM]	NPC1 Eff. (NPC1 promoter [2])	percent Golgi location (NPC3 cells; 10 or 100 nM)	Renilla Enzyme IC50 (Renilla Enzyme)	EC50 (NPC1 promoter [3]) [nM]	NPC1-renilla Eff. (NPC1 promoter [3]) [%]
CC(=O)c1c(C)[nH]c(C(=O)Nc2cccc(S(=O)(=O)N(C)C)c2)c1C [Example 1]	40	22	no effect on Wt cells	6.1	148	reduces percent Golgi location by a statistically significant amount	correction of their block	6.6 to 7.7	68-83%				
COc1ccc(NC(=O)c2[nH]c(C)c(C(C)=O)c2C)cc1S(=O)(=O)Nc1ccc(Br)cc1 [Example 36]	50	25	no effect on Wt cells				correction of their block	0.7	150%	reduces percent Golgi location by a statistically significant amount			
COc1ccc(NC(=O)C23CC4CC(CC(C4)C2)C3)cc1S(=O)(=O)Nc1ccc(Br)cc1 [Example 47]		33									Inactive	2700	80
